Assays:
[1] = test system: partial sciatic nerve ligation model in rats; experiment: Analgesic effect in a Seltzer model, Evaluation (2): mechanical hyperalgesia, analgesy meter paw pressure test; format: in vivo; details: rat, oral administration, 10 mg/kg, at 3 hours
Text: Rats were anaesthetized using isoflurane/O2 inhalation anaesthesia. After induction of anesthesia, the left thigh was shaved. An incision was made in the skin just below the hip bone. The muscle was bluntly dissected to expose the sciatic nerve. One third (⅓) to one half (½) of the sciatic nerve thickness was tightly ligated and the wound was closed. The right thigh is used as a sham-operated control. The right thigh undergoes an identical procedure with the left hind limb, however, the sciatic nerve is not manipulated or ligated.
Mechanical hyperalgesia was eavaluated using an analgesy meter. Two weeks after nerve ligation, the paw pressure test was performed using an analgesy meter (stimulus pressure increased 16 g per second) to obtain paw withdrawal thresholds (PWT). Measurements were made on both sides of the hind paw and to obtain pre-dose PWT. The rats showing the threshold change from 60 to 90 g (in nerve ligated side) and 100 to 175 g (in sham operated side) were used in the experiments. On the day before the experiment, the rats have their hind paws set on the apparatus to familiarize them with the test procedure. […] Post-dose PWT of the right and left hind paws were measured at approximately 1 to 5 hours after drug administration. Percent reversal of mechanical hyperalgesia for each rat was calculated using the following formula. […]

rat model of cystitis = experiment: Evaluation of the urinary function in a rat model of cystitis (acetic acid infusion, cystometry); format: in vivo; details: oral administration of 30 mg/kg
Text: A rat was fixed in the supine position after being given anesthesia through the inhalation of 2% isoflurane (Anesthetic background: Nitrous oxide: Oxygen=7:3). A midline incision was made in its abdomen to expose the bladder. A cannula (made by) processing a polyethylene tube (PE-50: Becton Dickinson)) was inserted through a small incision on top of the bladder and fixed to create a bladder fistula. The other end of the cannula was led through the hypodermal tissue to the back, and the muscular coat and skin were sutured. The cannula, which was led to the back, was protected with a stainless spring in the middle and connected to the cannula swivel. […]
Three days after the acetic acid infusion, the other end of the cannula inserted into the bladder was connected to a T shape stopcock and then the intravesical pressure was recorded continuously using a pressure amplifier while infusing warmed normal saline solution at a rate of 3.0 mL/hr from one side and through a pressure transducer on the other side. The baseline of the intravesical pressure was measured (for approximately 40 minutes) after a measurement for stable duration (for approximately 20 minutes). After that, a vehicle, positive control compound or test compound wore administered, and the value after administration was measured for approximately 120 minutes. […]

For `CC(C)Oc1ccc(Nc2nc(=O)n(CC(C)(C)C(=O)O)c(=O)n2Cc2ccc(Cl)cc2)cc1F` [Compound I-0364], the “analgesic effect, percent reversal of mechanical hyperalgesia” value [1] was 56.7 % reversal, the “improvements in the urinary function in the voided volume per urination” value (rat model of cystitis) was 88% and the “improvements in the urinary function in the voiding interval” value (rat model of cystitis) was 74.8%.
